In PubChem BioAssay (NCI):
Several values for one entry are separate records, joined by “and”; a condition that tells them apart may be missing. Equal entries are not always repeated.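 Tested at 5 concentrations; 48 h exposure; 96-well plates; endpoints linearly interpolated, else capped at highest concentration. At the GI50, growth is halved. TGI: total growth inhibition.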

Experiments:
Experiment in all cases: DTP human tumour cell line panel, 48 h
[1] = test system: 786-0 renal
[2] = test system: HOP-92 NSCLC
[3] = test system: OVCAR-5 ovarian
[4] = test system: OVCAR-8 ovarian
[5] = test system: SK-MEL-2 melanoma
[6] = test system: TK-10 renal
[7] = test system: UACC-62 melanoma
[8] = test system: UO-31 renal
[9] = test system: K-562 leukemia
[10] = test system: T-47D breast

SMILES: CCOC(=O)C(NO)C(Sc1ccccc1)c1ccc(OC)cc1 (stereo not given)
- TGI [1]: > 100 µM
- TGI [2]: > 100 µM
- TGI [3]: > 100 µM
- TGI [4]: > 100 µM
- TGI [5]: > 100 µM
- TGI [6]: > 100 µM
- TGI [7]: > 100 µM
- TGI [8]: > 100 µM

SMILES: COc1cc(C2C(C(=O)Nc3ccc([N+](=O)[O-])cc3)=C(C)NC(C)=C2C(=O)Nc2ccc([N+](=O)[O-])cc2)ccc1O
- TGI [1]: > 100 µM
- TGI [2]: 57 µM
- TGI [9]: 81.6 µM
- TGI [3]: > 95.8 µM
- TGI [4]: > 54.2 µM
- TGI [5]: 34.7 µM
- TGI [6]: 68.7 µM
- TGI [7]: 42 µM
- TGI [8]: 46.3 µM

SMILES: C[C@H](CS)C(=O)N1c2ccccc2C[C@H]1C(=O)O
- TGI [1]: > 100 µM
- TGI [9]: > 100 µM
- TGI [3]: > 100 µM
- TGI [4]: > 100 µM
- TGI [5]: > 100 µM
- TGI [10]: > 100 µM
- TGI [6]: > 100 µM
- TGI [7]: > 100 µM
- TGI [8]: > 100 µM

SMILES: CCN(CC)CC(=O)NC1c2ccccc2Oc2c(C)cccc21 (stereo not given)
- TGI [1]: > 100 µM
- TGI [9]: > 100 µM
- TGI [3]: > 100 µM
- TGI [4]: > 100 µM
- TGI [6]: > 100 µM
- TGI [7]: > 100 µM
- TGI [8]: > 100 µM

SMILES: CN(C)C(=O)NC(=S)N(C)C
- TGI [1]: > 100 µM
- TGI [2]: > 100 µM
- TGI [9]: > 100 µM
- TGI [3]: > 100 µM
- TGI [4]: > 100 µM
- TGI [5]: > 100 µM
- TGI [6]: > 100 µM
- TGI [7]: > 100 µM
- TGI [8]: > 100 µM

SMILES: CC(=O)OC(C)(C)/C=C/C(=O)[C@](C)(O)[C@H]1[C@H](O)C[C@@]2(C)[C@@H]3CC=C4[C@@H](C=C(O)C(=O)C4(C)C)[C@]3(C)C(=O)C[C@]12C
- GI50 [1]: 0.0154 µM
- TGI [9]: 4.97 µM and 9.17 µM and 14 µM
- TGI [3]: 6.67 µM and 4.02 µM and 1.09 µM
- TGI [4]: 5.35 µM and 2.14 µM and 3.28 µM
- TGI [5]: 64.9 nM [middle of 4 runs]
- TGI [10]: 1.46 µM
- TGI [6]: 0.15 µM and 0.204 µM
- TGI [7]: 1.56 µM and 0.806 µM and 1.17 µM

SMILES: CCOc1ccc(OCC)c([P+](c2ccccc2)(c2ccccc2)c2ccccc2)c1
- TGI [1]: 15.6 µM
- TGI [2]: 0.95 µM
- TGI [9]: 17 µM
- TGI [3]: 6.91 µM
- TGI [4]: 12.5 µM
- TGI [6]: 12 µM
- TGI [7]: 14.8 µM

SMILES: CC(=O)[CH-]C(=O)c1ccccc1.CC(=O)[CH-]C(=O)c1ccccc1.CC(C)CCC[C@H](C)C1CCC2[C@@H]3CC=C4C[C@@H]([O-])CC[C@]4(C)C3CC[C@@]21C.CC(C)CCC[C@H](C)C1CCC2[C@@H]3CC=C4C[C@@H]([O-])CC[C@]4(C)C3CC[C@@]21C.Cl.[Ti+4] (stereo not given in full)
- GI50 [1]: > 25 µM
- TGI [1]: > 25 µM
- GI50 [9]: > 25 µM
- TGI [9]: > 25 µM
- GI50 [3]: > 25 µM
- TGI [3]: > 25 µM
- GI50 [4]: > 25 µM
- TGI [4]: > 25 µM
- GI50 [5]: > 25 µM
- TGI [5]: > 25 µM
- GI50 [6]: > 25 µM
- TGI [6]: > 25 µM
- GI50 [7]: > 25 µM
- TGI [7]: > 25 µM
- GI50 [8]: > 25 µM
- TGI [8]: > 25 µM

SMILES: COc1cc(/C=C/c2ccc(Br)cc2)cc(OC)c1OC
- TGI [1]: 52.9 µM
- TGI [2]: 72.3 µM
- TGI [9]: > 37.8 µM
- TGI [3]: > 75.1 µM
- TGI [4]: 98.3 µM
- TGI [5]: 64.2 µM
- TGI [6]: > 100 µM
- TGI [7]: > 72.1 µM
- TGI [8]: 80.1 µM

SMILES: CC1=C(C(=O)NCc2ccccc2)C(c2ccccc2C)C(C(=O)NCc2ccccc2)=C(C)N1
- TGI [1]: 67 µM
- TGI [2]: > 86.8 µM
- TGI [9]: > 100 µM
- TGI [3]: > 95.5 µM
- TGI [4]: 32.8 µM
- TGI [5]: 38.5 µM
- TGI [6]: 99.6 µM
- TGI [7]: 38.8 µM
- TGI [8]: > 93.3 µM

SMILES: O=C(CO[N+](=O)[O-])OC/C=C/c1ccccc1
- TGI [1]: > 100 µM
- TGI [2]: > 100 µM
- TGI [9]: > 100 µM
- TGI [3]: > 100 µM
- TGI [4]: > 100 µM
- TGI [5]: > 100 µM
- TGI [6]: > 100 µM
- TGI [8]: > 100 µM

SMILES: O=C(CCl)Nc1cc(Cl)c(Cl)cc1Cl
- TGI [1]: 2.87 µM
- TGI [9]: > 10 µM
- TGI [3]: 3.72 µM
- TGI [4]: 3.1 µM
- TGI [5]: 3.44 µM
- TGI [10]: 5.59 µM
- TGI [6]: 3.27 µM
- TGI [7]: 3.59 µM

SMILES: OCc1ccc(N2CCc3cc(F)ccc3C2)cc1Cl
- GI50 [1]: 8.64 µM
- TGI [1]: 22.7 µM
- GI50 [2]: 0.199 µM
- TGI [2]: 6.36 µM
- GI50 [9]: 0.125 µM
- TGI [9]: 17.2 µM
- GI50 [4]: 7.31 µM
- TGI [4]: 20.8 µM
- GI50 [5]: 0.375 µM
- TGI [5]: 17.8 µM
- TGI [6]: 0.0416 µM
- GI50 [7]: 0.0256 µM
- TGI [7]: 0.198 µM
- GI50 [8]: 1.7 µM
- TGI [8]: 18.4 µM

SMILES: CN(C)CCn1cnc2ncccc2c1=O
- TGI [1]: > 100 µM
- TGI [2]: > 100 µM
- TGI [9]: > 100 µM
- TGI [3]: > 100 µM
- TGI [4]: > 100 µM
- TGI [5]: > 100 µM
- TGI [6]: > 100 µM
- TGI [7]: > 100 µM
- TGI [8]: > 100 µM

SMILES: CC1CCC(=O)C(C(O)CC2CC(=O)N(c3ccccc3)C(=O)C2)C1 (stereo not given)
- TGI [1]: > 100 µM
- TGI [2]: > 100 µM
- TGI [9]: > 100 µM
- TGI [3]: > 100 µM
- TGI [4]: > 100 µM
- TGI [6]: > 100 µM
- TGI [7]: > 100 µM
- TGI [8]: > 100 µM

SMILES: COc1ccc(Cl)cc1Nc1nc(C(F)(F)F)ccc1C(=O)N/N=C/c1cccnc1
- GI50 [1]: 2.63 µM
- TGI [1]: > 100 µM
- GI50 [2]: 2.42 µM
- TGI [2]: 28.3 µM
- GI50 [9]: 3.16 µM
- TGI [9]: > 100 µM
- GI50 [4]: 2.91 µM
- TGI [4]: > 100 µM
- GI50 [5]: 3.5 µM
- TGI [5]: > 100 µM
- GI50 [10]: 2.12 µM
- TGI [10]: > 100 µM
- GI50 [6]: 5.9 µM
- TGI [6]: > 100 µM
- GI50 [7]: 3.69 µM
- TGI [7]: > 100 µM
- GI50 [8]: 4.1 µM
- TGI [8]: > 100 µM

SMILES: CCCCCCCCCCSC(=O)NC
- TGI [1]: > 100 µM
- TGI [2]: 57.8 µM
- TGI [9]: 67.7 µM
- TGI [3]: > 100 µM
- TGI [4]: 87.7 µM
- TGI [5]: 69 µM
- TGI [6]: > 100 µM
- TGI [7]: > 100 µM
- TGI [8]: > 100 µM

SMILES: COc1ccc(-c2ccccc2)c2[nH]c3c(c12)CCNC3=O
- TGI [1]: > 100 µM
- TGI [2]: > 100 µM
- TGI [9]: > 100 µM
- TGI [3]: > 100 µM
- TGI [4]: > 100 µM
- TGI [6]: > 100 µM
- TGI [7]: > 100 µM
- TGI [8]: > 100 µM

SMILES: Cc1ccc(/C=C/c2c(C(=O)/C=C/c3ccc(Cl)cc3)c(C)nc3ccccc23)cc1
- GI50 [1]: 1.6 µM
- TGI [1]: 3.2 µM
- GI50 [2]: 1.62 µM
- TGI [2]: 3.53 µM
- GI50 [9]: 2.63 µM
- TGI [9]: > 100 µM
- GI50 [3]: 2.16 µM
- TGI [3]: 5.86 µM
- GI50 [4]: 2.17 µM
- TGI [4]: 6.46 µM
- GI50 [5]: 2.01 µM
- TGI [5]: 4.96 µM
- GI50 [6]: 2.53 µM
- TGI [6]: 4.84 µM
- GI50 [7]: 1.75 µM
- TGI [7]: 3.72 µM
- GI50 [8]: 1.16 µM
- TGI [8]: 2.38 µM

SMILES: COC1[C@H](NC(=O)OC(C)(C)C)C(=O)N1Cc1ccccc1 (stereo not given in full)
- TGI [1]: > 100 µM
- TGI [2]: > 100 µM
- TGI [9]: > 100 µM
- TGI [3]: > 100 µM
- TGI [4]: > 100 µM
- TGI [5]: > 100 µM
- TGI [6]: > 100 µM
- TGI [7]: > 100 µM
- TGI [8]: > 100 µM

SMILES: CCCCCCCCCCCCCCCCc1c(C(=O)OC)nc(NN)[nH]c1=O
- TGI [1]: > 50 µM
- TGI [2]: > 50 µM
- TGI [9]: > 50 µM
- TGI [3]: > 50 µM
- TGI [4]: > 50 µM
- TGI [5]: > 50 µM
- TGI [6]: > 50 µM
- TGI [7]: > 50 µM
- TGI [8]: > 50 µM
